Measurements reported in PubChem BioAssay AID200 (DTP/NCI, 2004).
“And” between values parts separate entries of the source, which are not always exact repeats. Equal values may be shown once. Toxic doses and inconclusive results are not listed. Where a SMILES comes first, the peptide text is derived from it.

Test system: B6C3F1 mice, B16 melanoma ip, median survival T/C
Experiment: NCI In Vivo Anticancer Drug Screen. Data for tumor model B16 Melanoma (intraperitoneal) in B6C3F1 mice
Settings: endpoint: median survival time, higher = longer survival
Summary of the method: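 Mice bearing transplanted tumor were dosed with compound or vehicle, and survival was recorded. Activity is expressed as the treated-group measurement (T) divided by the vehicle control measurement (C).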

[1] = dose: 12.5 mg/kg/injection, schedule: Q01DX009 (ip), vehicle: saline with Tween-80
[2] = dose: 25.0 mg/kg/injection, schedule: Q01DX009 (ip), vehicle: saline with Tween-80
[3] = dose: 50.0 mg/kg/injection, schedule: Q01DX009 (ip), vehicle: saline with Tween-80
[4] = dose: 200.0 mg/kg/injection, schedule: Q01DX009 (ip), vehicle: saline with Tween-80
[5] = dose: 100.0 mg/kg/injection, schedule: Q01DX009 (ip), vehicle: saline with Tween-80

For `CSc1ccc2c(c1)C(N1CCN(C)CC1)Cc1ccccc1S2` (stereo not drawn), the T/C (dose: 1.56 mg/kg/injection, schedule: Q01DX009 (ip), vehicle: saline with Tween-80) was 105 % of control, the T/C (dose: 3.12 mg/kg/injection, schedule: Q01DX009 (ip), vehicle: saline with Tween-80) was 108 % of control and the T/C (dose: 6.25 mg/kg/injection, schedule: Q01DX009 (ip), vehicle: saline with Tween-80) was 105 % of control. For the same molecule, the T/C [1] was 98 % of control, the T/C [2] was 94 % of control and the T/C [3] was 88 % of control.
In the case of `C/C=C/C=C\C=C/C(O)CC(OP(=O)(O)O)C(C)(O)/C=C/C1CC=CC(=O)O1` (stereo not drawn), the T/C (dose: 0.38 mg/kg/injection, schedule: Q01DX009 (ip), vehicle: water) is reported as 107 % of control, the T/C (dose: 0.75 mg/kg/injection, schedule: Q01DX009 (ip), vehicle: water) is reported as 117 % of control (2×) and 123 % of control and the T/C (dose: 6.0 mg/kg/injection, schedule: Q01DX009 (ip), vehicle: water) is reported as 157 % of control and 184 % of control.
In the case of `CN(C)/N=N/c1nc[nH]c1C(N)=O`, the T/C (dose: 25.0 mg/kg/injection, schedule: Q01DX009 (ip), vehicle: distilled water + Tween-80) is reported as 104 % of control, the T/C [2] is reported as 100 % of control and the T/C [3] is reported as 119 % of control. For the same molecule, the T/C (dose: 60.0 mg/kg/injection, schedule: Q04DX003 (ip), vehicle: carboxymethylcellulose (CMC)) was 109 % of control, the T/C (dose: 60.0 mg/kg/injection, schedule: Q04DX003 (ip), vehicle: saline) was 120 % of control and the T/C (dose: 80.0 mg/kg/injection, schedule: Q04DX003 (ip), vehicle: saline) was 102 % of control. For the same molecule, the T/C (dose: 100.0 mg/kg/injection, schedule: Q01DX009 (ip), vehicle: distilled water + Tween-80) was 109 % of control, the T/C (dose: 120.0 mg/kg/injection, schedule: Q04DX003 (ip), vehicle: carboxymethylcellulose (CMC)) was 113 % of control and the T/C (dose: 180.0 mg/kg/injection, schedule: Q04DX003 (ip), vehicle: carboxymethylcellulose (CMC)) was 118 % of control. For the same molecule, the T/C (dose: 180.0 mg/kg/injection, schedule: Q04DX003 (ip), vehicle: saline) was 120 % of control and the T/C [4] was 93 % of control.
In the case of `OCC1OC(n2cnc3c(NO)ncnc32)C(O)C1O` (stereo not drawn), the T/C (dose: 12.5 mg/kg/injection, schedule: Q01DX009 (ip), vehicle: Klucel (hydroxypropylcellulose) (HPC)) is reported as 101 % of control and 105 % of control, the T/C (dose: 25.0 mg/kg/injection, schedule: Q01DX009 (ip), vehicle: Klucel (hydroxypropylcellulose) (HPC)) is reported as 93 % of control and 100 % of control and the T/C (dose: 50.0 mg/kg/injection, schedule: Q01DX009 (ip), vehicle: Klucel (hydroxypropylcellulose) (HPC)) is reported as 96 % of control and 98 % of control. The T/C (dose: 100.0 mg/kg/injection, schedule: Q01DX009 (ip), vehicle: Klucel (hydroxypropylcellulose) (HPC)) was 97 % of control and 101 % of control, the T/C (dose: 200.0 mg/kg/injection, schedule: Q01DX009 (ip), vehicle: Klucel (hydroxypropylcellulose) (HPC)) was 91 % of control and 95 % of control and the T/C (dose: 400.0 mg/kg/injection, schedule: Q01DX009 (ip), vehicle: Klucel (hydroxypropylcellulose) (HPC)) was 86 % of control and 87 % of control.
`Nc1ncc(C2OC(CO)C(O)C2O)c(=O)[nH]1` (stereo not drawn) was tested, and the T/C (dose: 50.0 mg/kg/injection, schedule: Q01DX009 (ip), vehicle: saline) was 150 % of control and the T/C (dose: 100.0 mg/kg/injection, schedule: Q01DX009 (ip), vehicle: saline) was 154 % of control.
For `CN(C)P(=O)(Oc1ccccc1)N(C)C`, the T/C [1] was 114 % of control and 98 % of control, the T/C [2] was 100 % of control and 101 % of control and the T/C [3] was 98 % of control and 99 % of control. For the same molecule, the T/C [5] was 110 % of control and 99 % of control and the T/C [4] was 101 % of control and 103 % of control.
For `CC(=O)NC(Cc1ccccc1)C(=O)NC(Cc1ccccc1)C(=O)O` (stereo not drawn) (Ac-Phe-Phe-OH; configuration not given here), the T/C [2] was 107 % of control, the T/C [3] was 100 % of control and the T/C [5] was 102 % of control. The T/C [4] was 104 % of control and the T/C (dose: 400.0 mg/kg/injection, schedule: Q01DX009 (ip), vehicle: saline with Tween-80) was 92 % of control.
